This note sets out measurements from patent publication US11548903B2, “Bicyclic thiazine and oxazine derivatives as beta-secretase inhibitors and methods of use” (AMGEN INC., priority 2016, dated 2023).

As a reminder, the IC50 is the midpoint of a concentration-inhibition curve.

The target of one experiment is Recombinant CatD (Homo sapiens (Human), UniProt P07339). The experiment is described as follows: In vitro enzymatic Cathepsin D (CatD) FRET assay. It is filed as biochemical. Conditions: read-out: Cat D Enzyme IC50. How it is done:
In Vitro Enzymatic Cathepsin D (CatD) FRET Assay Recombinant CatD was expressed in CHO cells. The assay buffer for CatD was 0.05 M citrate pH 3.5, 10% DMSO final, 5 mM CHAPS. […] The assays was effectively started by the addition of different FRET substrates (20 nM for CatD) and the combination was incubated for one hour. The FRET assay was terminated with by addition of tris buffer, which raises the pH to neutrality, and the fluorescence was determined. The FRET substrate was a peptide with commercially available fluorophore and quencher, on opposite sides of the CatD cleavage site. The CatD substrate peptide sequence was based on sequence #1 of Table 1 from Gulnik et al., FEBS Lett. 413(2):379-384 (1997). Proteolytic cleavage of the FRET substrate released quenching of fluorescence (CatD excitation 500 nm and emission 580 nm). The in vitro CatD FRET assay data for each of the Examples is provided in Table 2, conducted by the first procedure described above. […] Thus, with this surprising selectivity profile, the compounds provided herein are believed to minimize, reduce or completely eliminate any risk of retinal atrophy and abnormal development of the eye and of the retinal pigmented epithelium as it relates to the normal function and activity of CatD.

A further experiment deals with human recombinant BACE1 (Homo sapiens (Human), UniProt P56817). The experiment is described as follows: In vitro enzymatic BACE1 FRET assay. It is filed as biochemical. Conditions: read-out: BACE1 Enzyme IC50. How it is done:
(§1) In Vitro Enzymatic BACE1 and BACE2 FRET (Fluorescence Resonance Energy Transfer) Assays […] These recombinant proteins were further purified using Ni-NTA affinity chromatography (Qiagen). […] The assay was effectively started by the addition of FRET substrate (50 nM) and the combination was incubated for one hour. The FRET assay was terminated by the addition of tris buffer, which raised the pH to neutrality, and the fluorescence was determined. The FRET substrate was a peptide with commercially available fluorophore and quencher, on opposite sides of the BACE cleavage site. The specific FRET substrate used in this assay was made by Amgen in-house. Commercially available FRET substrates, for example, the FRET substrate offered with the BACE1 FRET Assay Kit sold by ThermoFisher Scientific (Catalog Number P2985), may be used in this assay with the appropriate modifications, which are within the purview of the ability of a person with ordinary skill in the art. Proteolytic cleavage of the FRET substrate released quenching of fluorescence (excitation 488 nm and emission 590 nm).

The subject of experiment [1] is BACE1 (Aβ40 from cells stably expressing Amyloid Precursor Protein). The experiment is described as follows: In vitro BACE1 cell-based assay (Aβ40 in conditioned medium, HTRF). How it is done:
In Vitro BACE1 Cell-Based Assay The cell-based assay measures inhibition or reduction of Aβ40 in conditioned medium of test compound treated cells expressing amyloid precursor protein. Cells stably expressing Amyloid Precursor Protein (APP) were plated at a density of 45K cells/well in 384 well plates (Corning/BioCoat 354663). The test compounds were then added to cells in 22-point dose response concentrations with the starting concentration being 62.5 μM. The compounds were diluted from stock solutions in DMSO and the final DMSO concentration of the test compounds on cells was 0.625%. The cells were cultivated overnight at 37° C. and 5% CO2 in DMEM supplemented with 10% FBS. After 24 h of incubation with the test compounds, the conditioned media was collected and the Aβ40 levels were determined using HTRF (Homogeneous Time Resolved Fluorescence). […] The HTRF to detect Aβ40 was performed in 384 well plates (Costar 3658). The antibody pair that were used to detect Aβ 40 from cell supernatants were ConfAb40 antibody (Amgen in-house) and biotinylated 6E10 (BIOLEGEND). As an alternative to ConfAb40, a commercially available antibody, Anti-beta Amyloid 1-40 antibody [BDI350] from Abcam, Cambridge, Mass. 02139-1517 (Product code: ab20068), may be used in this assay. […] The conditioned media was incubated with above antibodies and Streptavidin Allophycocyanin Conjugate for 30-60 minutes at 23° C. The final readout was performed on Envision from PerkinElmer.

The target in a further experiment is human recombinant BACE2 (Homo sapiens (Human), UniProt Q9Y5Z0). The experiment is described as follows: In vitro enzymatic BACE2 FRET assay. The class given is biochemical. Conditions: read-out: BACE2 Enzyme IC50. How it is done:
as §1

[2] abbreviates: Aβ40, 24 h incubation, read-out: BACE1 Cell IC50.

Where two headings read alike, the source gives them in different places.

Recombinant CatD, sequence (P07339 65-412): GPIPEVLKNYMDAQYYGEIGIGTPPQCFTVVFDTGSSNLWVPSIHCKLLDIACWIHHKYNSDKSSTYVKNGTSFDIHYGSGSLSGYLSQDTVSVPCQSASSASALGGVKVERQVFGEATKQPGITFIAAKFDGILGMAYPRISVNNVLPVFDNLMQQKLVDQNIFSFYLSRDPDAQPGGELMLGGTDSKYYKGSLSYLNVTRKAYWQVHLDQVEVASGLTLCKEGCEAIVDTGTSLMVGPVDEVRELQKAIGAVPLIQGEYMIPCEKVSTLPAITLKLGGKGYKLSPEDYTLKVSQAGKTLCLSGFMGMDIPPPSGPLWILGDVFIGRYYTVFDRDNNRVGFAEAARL
human recombinant BACE2, sequence (Q9Y5Z0 63-518): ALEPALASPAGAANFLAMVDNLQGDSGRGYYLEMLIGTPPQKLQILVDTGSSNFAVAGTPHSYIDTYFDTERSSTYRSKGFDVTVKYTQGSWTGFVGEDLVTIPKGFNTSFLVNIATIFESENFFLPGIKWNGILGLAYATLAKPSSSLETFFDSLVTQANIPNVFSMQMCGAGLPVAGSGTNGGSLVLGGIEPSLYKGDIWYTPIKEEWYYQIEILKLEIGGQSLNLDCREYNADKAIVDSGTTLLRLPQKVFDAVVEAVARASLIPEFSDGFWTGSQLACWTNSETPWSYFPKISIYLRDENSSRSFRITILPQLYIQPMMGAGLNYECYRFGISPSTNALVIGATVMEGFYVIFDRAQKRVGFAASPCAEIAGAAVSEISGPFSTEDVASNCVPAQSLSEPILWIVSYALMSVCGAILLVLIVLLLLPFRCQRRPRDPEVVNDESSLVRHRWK
human recombinant BACE1, sequence (P56817 46-501): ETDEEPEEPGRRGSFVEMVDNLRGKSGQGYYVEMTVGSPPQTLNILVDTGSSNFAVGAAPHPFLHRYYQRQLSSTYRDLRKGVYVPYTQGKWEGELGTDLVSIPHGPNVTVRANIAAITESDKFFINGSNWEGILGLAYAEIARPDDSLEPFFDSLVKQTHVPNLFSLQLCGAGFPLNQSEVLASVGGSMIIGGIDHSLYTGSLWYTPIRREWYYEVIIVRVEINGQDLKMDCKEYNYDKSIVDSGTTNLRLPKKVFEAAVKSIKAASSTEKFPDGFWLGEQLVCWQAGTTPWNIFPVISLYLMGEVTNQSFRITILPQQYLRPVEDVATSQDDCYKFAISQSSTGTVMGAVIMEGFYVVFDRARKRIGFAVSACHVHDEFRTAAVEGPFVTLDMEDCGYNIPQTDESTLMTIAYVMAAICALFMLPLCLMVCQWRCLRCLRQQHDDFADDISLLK

In the case of `C#CCOc1cnc(/C(F)=C/c2ccc(F)c([C@]34CN(c5ncc(F)cn5)C[C@H]3CSC(N)=N4)c2)cn1` (stereo in doubt) [Example 109, (4aR,7aS)-7a-(2-fluoro-5-((Z)-2-fluoro-2-(5-(prop-2-yn-1-yloxy)pyrazin-2-yl)vinyl)phenyl)-6-(5-fluoropyrimidin-2-yl)-4,4a,5,6,7,7a-hexahydropyrrolo[3,4-d][1,3]thiazin-2-amine], the IC50 at Recombinant CatD was determined as 7600 nM; on human recombinant BACE1, 0.149 nM; in experiment [1] (setting [2]), 0.000311 µM; at human recombinant BACE2, 5.49 nM.

As for `N#Cc1ccc(/C(F)=C/c2ccc(F)c([C@]34CO[C@H](C(F)F)[C@H]3CSC(N)=N4)c2)nc1` [Example 144, 6-((Z)-2-(3-((4aS,5S,7aS)-2-amino-5-(difluoromethyl)-4a,5,7,7a-tetrahydro-4H-furo[3,4-d][1,3]thiazin-7a-yl)-4-fluorophenyl)-1-fluorovinyl)nicotinonitrile], the IC50 at Recombinant CatD is > 400000 nM; on human recombinant BACE1 it was 21.6 nM; in experiment [1] (setting [2]) it was 0.0181 µM; on human recombinant BACE2, 741 nM.

For `N#Cc1ccc(/C(F)=C/c2ccc(F)c([C@]34COC[C@H]3CSC(N)=N4)c2)nc1` [Example 107, 6-((Z)-2-(3-((4aS,7aS)-2-amino-4a,5,7,7a-tetrahydro-4H-furo[3,4-d][1,3]thiazin-7a-yl)-4-fluorophenyl)-1-fluorovinyl)nicotinonitrile], the IC50 on Recombinant CatD was > 400000 nM; at human recombinant BACE1, 11.7 nM; in experiment [1] (setting [2]) it was 0.041 µM; on human recombinant BACE2 it was 279 nM.

`NC1=N[C@@]2(c3cc(/C=C(\F)c4ccc(Cl)cn4)ccc3F)CN(c3ncc(F)cn3)C[C@H]2CS1` [Example 101, (4aR,7aS)-7a-(5-((Z)-2-(5-chloropyridin-2-yl)-2-fluorovinyl)-2-fluorophenyl)-6-(5-fluoropyrimidin-2-yl)-4,4a,5,6,7,7a-hexahydropyrrolo[3,4-d][1,3]thiazin-2-amine]: the IC50 at Recombinant CatD turned out to be 49100 nM; on human recombinant BACE1 it was 1.84 nM; in experiment [1] (setting [2]) it was 0.00194 µM; on human recombinant BACE2, 1.03 nM.

Take `NC1=N[C@@]2(c3cc(/C=C(\F)c4ccc(F)cn4)ccc3F)CO[C@H](C(F)(F)F)[C@H]2CS1` [Example 132, (4aS,5S,7aS)-7a-(2-fluoro-5-((Z)-2-fluoro-2-(5-fluoropyridin-2-yl)vinyl)phenyl)-5-(trifluoromethyl)-4a,5,7,7a-tetrahydro-4H-furo[3,4-d][1,3]thiazin-2-amine]: the IC50 is > 400000 nM on Recombinant CatD, 426 nM at human recombinant BACE1, 0.112 µM in experiment [1] (setting [2]) and 427 nM on human recombinant BACE2.

For `COc1cnc(/C(F)=C/c2ccc(F)c([C@]34CO[C@H](C(F)(F)F)[C@H]3CSC(N)=N4)c2)cn1` [Example 136, (4aS,5S,7aS)-7a-(2-fluoro-5-((Z)-2-fluoro-2-(5-methoxypyrazin-2-yl)vinyl)phenyl)-5-(trifluoromethyl)-4a,5,7,7a-tetrahydro-4H-furo[3,4-d][1,3]thiazin-2-amine], the IC50 is > 400000 nM on Recombinant CatD, 622 nM at human recombinant BACE1, 2.03 µM in experiment [1] (setting [2]) and 6630 nM at human recombinant BACE2.

With `C#CCOc1cnc(/C(F)=C/c2ccc(F)c([C@]34CN(C(=O)CC(F)(F)F)C[C@H]3CSC(N)=N4)c2)cn1` [Example 119, 1-((4aR,7aS)-2-amino-7a-(2-fluoro-5-((Z)-2-fluoro-2-(5-(prop-2-yn-1-yloxy)pyrazin-2-yl)vinyl)phenyl)-4a,5,7,7a-tetrahydropyrrolo[3,4-d][1,3]thiazin-6(4H)-yl)-3,3,3-trifluoropropan-1-one], the IC50 worked out at 105000 nM at Recombinant CatD, 9.45 nM on human recombinant BACE1, 0.0265 µM in experiment [1] (setting [2]) and 510 nM on human recombinant BACE2.

In the case of `NC1=N[C@@]2(c3cc(/C=C(\F)c4cnc(OCC(F)(F)C(F)F)cn4)ccc3F)CN(c3ncc(F)cn3)C[C@H]2CS1` [Example 112, (4aR,7aS)-7a-(2-fluoro-5-((Z)-2-fluoro-2-(5-(2,2,3,3-tetrafluoropropoxy)pyrazin-2-yl)vinyl)phenyl)-6-(5-fluoropyrimidin-2-yl)-4,4a,5,6,7,7a-hexahydropyrrolo[3,4-d][1,3]thiazin-2-amine], the IC50 at Recombinant CatD worked out at 1320 nM; at human recombinant BACE1 it was 108 nM; in experiment [1] (24 h, read-out: BACE1 Cell IC50 (μM)), 0.02 µM; at human recombinant BACE2, 136 nM.

`COc1nc(N2C[C@H]3CSC(N)=N[C@@]3(c3cc(/C=C(\F)c4ccc(C#N)cn4)ccc3F)C2)ncc1F` [Example 134, 6-((Z)-2-(3-((4aR,7aS)-2-amino-6-(5-fluoro-4-methoxypyrimidin-2-yl)-4,4a,5,6,7,7a-hexahydropyrrolo[3,4-d][1,3]thiazin-7a-yl)-4-fluorophenyl)-1-fluorovinyl)nicotinonitrile]: the IC50 at Recombinant CatD worked out at 59300 nM; at human recombinant BACE1 it was 1.4 nM; in experiment [1] (setting [2]) it was 0.0009 µM; on human recombinant BACE2, 4.3 nM.

For the molecule `N#Cc1ccc(/C(F)=C/c2ccc(F)c([C@@]34CN(c5ncc(F)cn5)C[C@@H]3CSC(N)=N4)c2)nc1` [Example 103, 6-((Z)-2-(3-((4aS,7aR)-2-amino-6-(5-fluoropyrimidin-2-yl)-4,4a,5,6,7,7a-hexahydropyrrolo[3,4-d][1,3]thiazin-7a-yl)-4-fluorophenyl)-1-fluorovinyl)nicotinonitrile], the IC50 worked out at 246000 nM on Recombinant CatD, 1.86 nM on human recombinant BACE1, 0.00545 µM in experiment [1] (setting [2]) and 27.2 nM at human recombinant BACE2.

Take `N#Cc1ccc(/C(F)=C/c2ccc(F)c([C@]34CO[C@H](CF)[C@H]3CSC(N)=N4)c2)nc1` [Example 131, 6-((Z)-2-(3-((4aS,5S,7aS)-2-amino-5-(fluoromethyl)-4a,5,7,7a-tetrahydro-4H-furo[3,4-d][1,3]thiazin-7a-yl)-4-fluorophenyl)-1-fluorovinyl)nicotinonitrile]: the IC50 is > 400000 nM on Recombinant CatD, 3.83 nM at human recombinant BACE1, 0.0115 µM in experiment [1] (setting [2]) and 427 nM on human recombinant BACE2.

On to `COC[C@H](C)Oc1cnc(/C(F)=C/c2ccc(F)c([C@]34CN(c5ncc(F)cn5)C[C@H]3CSC(N)=N4)c2)cn1` [Example 114, (4aR,7aS)-7a-(2-fluoro-5-((Z)-2-fluoro-2-(5-(((S)-1-methoxypropan-2-yl)oxy)pyrazin-2-yl)vinyl)phenyl)-6-(5-fluoropyrimidin-2-yl)-4,4a,5,6,7,7a-hexahydropyrrolo[3,4-d][1,3]thiazin-2-amine], for which the IC50 at Recombinant CatD stood at 38700 nM; on human recombinant BACE1, 8.96 nM; in experiment [1] (setting [2]) it was 0.00257 µM; at human recombinant BACE2, 30.6 nM.

For the molecule `Cc1noc(COc2cnc(/C(F)=C/c3ccc(F)c([C@]45CN(c6ncc(F)cn6)C[C@H]4CSC(N)=N5)c3)cn2)n1` (stereo in doubt) [Example 110, (4aR,7aS)-7a-(2-fluoro-5-((Z)-2-fluoro-2-(5-((3-methyl-1,2,4-oxadiazol-5-yl)methoxy)pyrazin-2-yl)vinyl)phenyl)-6-(5-fluoropyrimidin-2-yl)-4,4a,5,6,7,7a-hexahydropyrrolo[3,4-d][1,3]thiazin-2-amine], the IC50 at Recombinant CatD was found to be 4500 nM; on human recombinant BACE1, 1.56 nM; in experiment [1] (setting [2]), 0.00411 µM; at human recombinant BACE2 it was 85.5 nM.
